Reference: patent US6066485A, “Growth factor inducible serine/threonine phosphatase fin13” (New York University, priority 1997, dated 2000)
Read-outs that look alike come from different tables or passages of the source.

How the values were obtained:
FIN13 mRNA [1] = assay: FIN13 mRNA in ovaries of mice stimulated with DES; format: in vivo; conditions: mouse
Experimental: Northern analysis. RNA was electrophoresed on a 1% formaldehyde agarose gel, transferred overnight in 20×SSC to Genescreen-Plus nylon filters (Du Pont) and fixed by u.v. crosslinking. Filters were prehybridized, hybridized with radiolabeled cDNA probes and washed under standard conditions. To stimulate folliculogensis, immature mice (3 weeks) were injected subcutaneously with diethylstilbesterol (DES) or vehicle essentially as described previously (Guthridge et al., Growth Factors, 7:15 (1992)), and RNA was prepared from ovaries four days after stimulation.

myc-FIN13 = target: T1, myc-FIN13 (Mus musculus, UniProt Q61074); assay: Phosphatase assay of myc-FIN13 immunoprecipitated from transfected HeLa cells; format: biochemical
T1 construct: in-frame with, and N-terminal to, the FIN13 open reading frame; expressed in transfected cells; host or cells: HeLa
T1 sequence (Q61074 151-542): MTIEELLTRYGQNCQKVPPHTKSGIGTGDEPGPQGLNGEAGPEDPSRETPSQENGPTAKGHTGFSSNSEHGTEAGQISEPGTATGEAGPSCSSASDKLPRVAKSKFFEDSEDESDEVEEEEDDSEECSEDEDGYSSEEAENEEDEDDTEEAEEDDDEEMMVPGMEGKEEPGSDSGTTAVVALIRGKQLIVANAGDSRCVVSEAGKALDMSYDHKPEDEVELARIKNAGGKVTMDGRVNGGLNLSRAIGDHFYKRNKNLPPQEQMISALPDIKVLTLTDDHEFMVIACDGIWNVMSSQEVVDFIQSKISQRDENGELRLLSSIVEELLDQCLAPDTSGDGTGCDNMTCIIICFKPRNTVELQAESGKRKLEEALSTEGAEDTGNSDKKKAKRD
Experimental: FIGS. 6A-6C. Phosphatase activity and expression of FIN13 in mammalian cells. HeLa cells transfected with either pRK5 vector or pRKmyc-FIN13 (expressing myc-FIN13) and harvested 24 h later, were lysed in lysis buffer and cleared extracts ([…]) were immunoprecipitated with either anti-myc antibodies (9E10) or anti-FIN13 antiserum (630). IPs were then divided and subjected to either Western analysis for the detection of FIN13 expression or a phosphatase assay. For the detection of FIN13 (A), 1/4 of the IP was boiled in sample buffer and loaded onto a 10% polyacrylamide gel, electrophoresed and transferred to a nitrocellulose filter. Western blot analysis was performed using the 630 antiserum at 1:500 as described in Materials and Methods. For analysis of phosphatase activity (B), the ability of myc-FIN13 immunoprecipitates (1/8 of IP) to dephosphorylate ^32 P-labelled casein was examined in vitro in the presence of okadaic acid and MnCl2 as described in Materials and Methods. […]
Phosphatase assay. The phosphatase activity of purified FIN13 expressed in bacteria as a fusion protein with N- and C-terminal his-tags was assessed in vitro using ^32 P-labelled casein as a substrate. […] In addition, the phosphatase activity of FIN13 expressed in HeLa cells was also determined in an immune complex using ^32 P-labelled casein as a substrate. […]

his-FIN13 = target: T2, his-FIN13 (Mus musculus, UniProt Q61074); assay: Phosphatase assay of bacterially expressed his-FIN13 with 32P-labelled casein; format: biochemical
T2 construct: Purified his-tagged full length FIN13 (his-FIN13); made in house; host or cells: E. coli BL21(DE3)
T2 sequence (Q61074 151-542 limits assumed): T1 sequence (Q61074 151-542)
Experimental: FIG. 5. Phosphatase activity of bacterially expressed FIN13. Purified his-tagged full length FIN13 (his-FIN13) or his-tagged catalytic domain FIN13 (his-FIN13-cat) were examined for their ability to dephosphorylate ^32 P-labelled cascin in vitro as described in the Materials and Methods. Phosphatase assays were performed in the absence of his-FIN13 (No FIN13; open bar) or with his-FIN13 incubated in the presence of 10 mM of the indicated divalent cation (MgCl2, ZnCl2, CaCl2 or MnCl2)(solid bars) or in the presence of the indicated mM concentrations of MnCl2 (half-tone bars). +EDTA: indicates his-FIN13 incubated in the presence of 10 mM EDTA and 10 mM MnCl2. his-FIN13-cat was incubated in the presence of the indicated mM concentrations of MnCl2 (cross-hatched bars). his-FIN13 was also incubated in the presence of 1 μM okadaic acid (OA), 20 mg/ml poly L-lysine (PL-L), 20 mg/ml protamine sulfate (PS). All incubations were performed for 1 h at 30° C.
Preparation of ^32 P-labelled casein. Casein (10 mg)(Sigma) was labelled with ^32 P using 10U of the catalytic subunit of cAMP dependent protein kinase (Sigma) in 50 mM Tris-HCl pH 7.0, 0.1 mM EGTA, 10 mM Mg-acetate, 0.1% β-mercaptoethanol, and 0.5 mCi of ^32 PγATP for 12 h at 30° C. The reaction mixture was then precipitated at 4° C. in 20% TCA. Labelled casein was recovered by centrifugation, the pellet washed 5 times in 100% acetone and resuspended in 50 mM Tris-HCl, 0.1 mM EGTA.
Phosphatase assay. The phosphatase activity of purified FIN13 expressed in bacteria as a fusion protein with N- and C-terminal his-tags was assessed in vitro using ^32 P-labelled casein as a substrate. For preparation of his-FIN13 and his-FIN13-cat from bacteria, the BL21(DE3) strain transformed with pEThis-FIN13 or pEThis-FIN13-cat were induced with 0.2 mM IPTG for 2 h following which the cells were recovered by centrifugation, resuspended in column buffer (50 mM sodium phosphate, pH 8.0, 300 mM NaCl, 1 mM PMSF) and frozen overnight at -70° C. The bacteria were then lysed by sonication at 4° C. and the extract cleared by centrifugation. The supernatant was then adsorbed to Ni-NTA-agarose (Qiagen) at 4° C. for 1 h. The resin was then washed extensively in column buffer without PMSF and his-FIN13 or his-FIN13-cat were eluted using 25 mM Tris-HCl pH 7.2, 100 mM NaCl containing […] imidazole (Sigma). In addition, the phosphatase activity of FIN13 expressed in HeLa cells was also determined in an immune complex using ^32 P-labelled casein as a substrate. For preparation of immune complexes of myc-FIN13, HeLa cells were transfected with […] of pRKmyc-FIN13 or pRK5. Cells were lysed 24 h after transfection in lysis buffer (10 mM Na-phosphate pH 7.4, 100 mM NaCl, 1% TRITON X-100, 10 mM EDTA) also containing a protease/phosphatase inhibitor cocktail (1 mM PMSF, 1 μg/ml pepstatin, 1 μg/ml leupeptin, 1 μg/ml aprotinin, 10 mM Na-orthovanadate, 80 mM NaF, 80 mM β-glycerolphosphate, 10 μM okadaic acid). Cleared lysates (100 μg total protein) were immunoprecipitated with anti-myc monoclonal antibody (9E10) adsorbed to 30 μl protein G sepharose (Zymed) or anti-FIN13 antiserum adsorbed to 30 μl protein A sepharose (Zymed) for 1.5 h at 4° C. The anti-FIN13 polyclonal antiserum (630) was generated against the full length his-FIN13 expressed and purified from bacteria. The IPs were then washed 5 times with lysis buffer, once with 10 mM Tris-HCl pH 7.0, 100 mM NaCl and 5 mM MnCl2, and twice with phosphatase reaction buffer (10 mM Tris-HCl pH 7.0, 0.1 mM EGTA, 10 mM DTT and 10 mM MnCl2) containing 1 μM okadaic acid. Purified his-FIN13, his-FIN13-cat or myc-lPs were then examined for phosphatase activity by incubating the indicated FIN13 preparation in the presence of phosphatase reaction buffer containing ^32 P-labelled casein (1×10^5 cpm; approx. 1 μl) at 30° C. for up to 2 h.

FIN13 mRNA [2] = assay: Northern analysis of FIN13 mRNA induction in NIH 3T3 cells; format: cell-based, mouse
Experimental: FIG. 4. Regulation of FIN13 (and other FINs) mRNA in response to FGF-4. NIH 3T3 cells were starved for 48 h in DMEM/0.5% CS and stimulated for the indicated times up to 24 h with 100 ng/ml FGF-4. A15 cells and NIH 3T3 cells growing asynchronously in the presence of DMEM/10% CS are indicated as A15 and 3T3 respectively. Total RNA (6 μg) was examined by Northern analysis with ^32 P-labelled cDNAs for the indicated FIN genes shown on the left. The position of 28S and 18S rRNA are indicated on the right.
(§1) Cell culture. Mouse NIH 3T3 cells and A15 cells were cultured in Dulbecco's modified Eagle's medium (DMEM) containing 10% calf serum (CS). A15 cells are a NIH 3T3 cell line transformed with a human genomic fragment of the FGF-4 gene and have been previously described (Delli Bovi and Basilico, 1987, Proc. Natl. Acad. Sci. USA 84:5660). Rat pheochromocytoma PC12 cells were cultured in DMEM containing 10% heat inactivated horse serum (HS) (Gemini Bioproducts), 5% fetal bovine serum (FBS) (Gemini Bioproducts). […] Greater than 90% of PC12 cells had differentiated after 96 h or FGF-4 or NGF treatment as determined by the induction of neurite-like processes. […]
A maximum induction of 6-fold following 18 h stimulation was observed. […] The effect of cycloheximide on the induction of FIN13 mRNA was evaluated as follows. […]

Protein phosphatase 2A = Protein phosphatase 2A (Homo sapiens, UniProt P67775); assay: Protein phosphatase 2A control phosphatase assay; format: biochemical; conditions: 2 h, presence of okadaic acid
FIN13 transcripts = assay: Regulation of FIN13 transcripts in PC12 cells; format: cell-based, rat; conditions: starved PC12 cells
Experimental: as §1, with “Bioproducts). For stimulation with growth factors, NIH 3T3 cells were grown to 60-80% confluence, starved for 48 h in DMEM containing 0.5% CS and then stimulated with 50 ng/ml recombinant human FGF-4 or 10% CS for up to 24 h. Where indicated 10 μg/ml cycloheximide was added simultaneously with the growth factor. PC12 cells were starved for 48 h in DMEM containing 4.9 g/l glucose, 0.1% HS and 5% FBS for up to 24 h.” for “Bioproducts).”
Cells were starved for 48 h in 0.2% serum and then stimulated with either serum or FGF-4. […] Similar regulation of FIN13 was observed when starved PC12 cells were stimulated with FGF-4 with maximum expression detected at 12 h which decreased until 96 h.

Protein phosphatase 2A, sequence (P67775 whole entry): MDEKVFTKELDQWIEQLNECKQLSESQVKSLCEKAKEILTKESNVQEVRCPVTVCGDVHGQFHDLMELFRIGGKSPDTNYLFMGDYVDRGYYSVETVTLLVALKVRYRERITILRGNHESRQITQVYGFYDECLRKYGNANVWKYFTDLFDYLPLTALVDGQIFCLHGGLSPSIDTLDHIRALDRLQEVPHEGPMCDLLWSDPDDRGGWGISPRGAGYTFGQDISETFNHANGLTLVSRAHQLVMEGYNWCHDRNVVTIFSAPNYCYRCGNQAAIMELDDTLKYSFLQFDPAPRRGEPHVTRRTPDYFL

**Q.** For `CC/C(=C(/CC)c1ccc(O)cc1)c1ccc(O)cc1` [DES, diethylstilbesterol], which “expression of fin13 mRNA in ovaries” value (FIN13 mRNA [1]) is on record?
**A.** Its value is “increases expression”.

**Q.** For `O=C(O)CN(CCN(CC(=O)O)CC(=O)O)CC(=O)O` [EDTA], which “effect on FIN13 activity in 9E10 IPs” value (myc-FIN13; EDTA 10 mM) is on record?
**A.** The value was “abolished”.

**Q.** What about the “effect on his-FIN13 phosphatase activity” value (his-FIN13) of the same molecule?
**A.** Its value is “abolished activity”.

**Q.** With `C[C@@H]1C[C@@H]([C@H](O)CC2CC(=O)NC(=O)C2)C(=O)[C@@H](C)C1` [cycloheximide] as the molecule, how does the “induction of FIN13 mRNA by FGF-4 in presence of protein synthesis inhibitor” value (FIN13 mRNA [2]; 18 h FGF-4, 10 mg/ml cycloheximide) read?
**A.** Its value is “did not result in induction of FIN13”.

**Q.** With `C=C1[C@@H](O)[C@@H]2O[C@]3(CC[C@H](/C=C/[C@@H](C)[C@@H]4CC(C)=C[C@@]5(O[C@H](C[C@@](C)(O)C(=O)O)CC[C@H]5O)O4)O3)CC[C@H]2O[C@@H]1[C@@H](O)C[C@H](C)[C@H]1O[C@@]2(CCCCO2)CC[C@H]1C` [okadaic acid] as the molecule, how does the “effect on PP2A activity” value (Protein phosphatase 2A) read?
**A.** Its value is “abolished”.

**Q.** What about the “effect on his-FIN13 phosphatase activity” value (his-FIN13; 1 μM okadaic acid) of the same molecule?
**A.** Its value is “not inhibited”.

B1: myc-FIN13: FIN13 N-terminally fused to the myc epitope, expressed from pRKmyc-FIN13 (protein)
chain: T1 sequence (Q61074 151-542)
**Q.** B1 was tested. Which “phosphatase activity of immunoprecipitate in vitro” value (myc-FIN13; IP with 9E10 or 630, okadaic acid and MnCl2 present) did it give?
**A.** Its value is “exhibited phosphatase activity”.

B2: FGF-4: recombinant human fibroblast growth factor 4 (protein, UniProt P08620 31-206, looked up)
Fibroblast growth factor 4: APTAPNGTLEAELERRWESLVALSLARLPVAAQPKEAAVQSGAGDYLLGIKRLRRLYCNVGIGFHLQALPDGRIGGAHADTRDSLLELSPVERGVVSIFGVASRFFVAMSSKGKLYGSPFFTDECTFKEILLPNNYNAYESYKYPGMFIALSKNGKTKKGNRVSPTMKVTHFLPRL
**Q.** For B2, which “time of maximum FIN13 expression” value (FIN13 transcripts) is on record?
**A.** Its value is 12 h.

**Q.** What about the “maximum induction of FIN13 mRNA” value (FIN13 mRNA [2]; 18 h stimulation of NIH 3T3 cells) of the same molecule?
**A.** Its value is 6 fold.
